In patent publication US20240158348A1, “HERBICIDAL CYCLIC AMIDES N-SUBSTITUTED WITH A HALOALKYLSULFONYLANILIDE GROUP” (FMC Corporation, priority 2021, published 2024):

Legend:
Format in all cases: in vivo
corn (Zea mays) [1] = test: Test C preemergence, corn; conditions: 0 is no effect, 100 is complete control
Text: (§1) Seeds of plant species selected from blackgrass (Alopecurus myosuroides), corn (Zea mays), foxtail, giant (giant foxtail, Setaria faberi), goosegrass (Eleusine indica), kochia (Bassia scoparia), oat, wild (wild oat, Avena fatua), pigweed, palmer (palmer amaranth, Amaranthus palmeri), ragweed (common ragweed, Ambrosia artemisiifolia), ryegrass, Italian (Italian ryegrass, Lolium multiflorum), soybean (Glycine max) and wheat (Triticum aestivum) were planted into a blend of loam soil and sand and treated preemergence with a directed soil spray using test chemicals formulated in a non-phytotoxic solvent mixture which included a surfactant.
(§2) At the same time, plants selected from these crop and weed species and also galium (catchweed bedstraw, Galium aparine) and horseweed (Erigeron canadensis) were planted in pots containing the same blend of loam soil and sand and treated with postemergence applications of test chemicals formulated in the same manner. Plants ranged in height from 2 to 10 cm and were in the one- to two-leaf stage for the postemergence treatment. Treated plants and untreated controls were maintained in a greenhouse for 10 or 12 days, after which time all treated plants were compared to untreated controls and visually evaluated for injury. Plant response ratings, summarized in Table A, are based on a 0 to 100 scale where 0 is no effect and 100 is complete control. A dash (-) response means no test result.

[2] = system: foxtail, giant (giant foxtail, Setaria faberi); test: Test C preemergence, giant foxtail; conditions: 0 is no effect, 100 is complete control
Text: as §1, §2

[3] = system: goosegrass (Eleusine indica); test: Test C preemergence, goosegrass; conditions: 0 is no effect, 100 is complete control
Text: as §1, §2

kochia (Bassia scoparia) [4] = test: Test C preemergence, kochia; conditions: 0 is no effect, 100 is complete control
Text: as §1, §2

[5] = system: oat, wild (wild oat, Avena fatua); test: Test C preemergence, wild oat; conditions: 0 is no effect, 100 is complete control
Text: as §1, §2

[6] = system: pigweed, palmer (palmer amaranth, Amaranthus palmeri); test: Test C preemergence, palmer amaranth; conditions: 0 is no effect, 100 is complete control
Text: as §1, §2

[7] = system: ragweed (common ragweed, Ambrosia artemisiifolia); test: Test C preemergence, ragweed; conditions: 0 is no effect, 100 is complete control
Text: as §1, §2

[8] = system: ryegrass, Italian (Italian ryegrass, Lolium multiflorum); test: Test C preemergence, Italian ryegrass; conditions: 0 is no effect, 100 is complete control
Text: as §1, §2

soybean (Glycine max) [9] = test: Test C preemergence, soybean; conditions: 0 is no effect, 100 is complete control
Text: as §1, §2

[10] = system: wheat (Triticum aestivum); test: Test C preemergence, wheat; conditions: 0 is no effect, 100 is complete control
Text: as §1, §2

[11] = system: blackgrass (Alopecurus myosuroides); test: Test C postemergence, blackgrass; conditions: visual injury, 0 to 100 scale (0 no effect, 100 complete control)
Text: as §1, §2

corn (Zea mays) [12] = test: Test C postemergence, corn; conditions: visual injury, 0 to 100 scale (0 no effect, 100 complete control)
Text: as §1, §2

[13] = system: foxtail, giant (giant foxtail, Setaria faberi); test: Test C postemergence, giant foxtail; conditions: visual injury, 0 to 100 scale (0 no effect, 100 complete control)
Text: as §1, §2

[14] = system: goosegrass (Eleusine indica); test: Test C postemergence, goosegrass; conditions: visual injury, 0 to 100 scale (0 no effect, 100 complete control)
Text: as §1, §2

kochia (Bassia scoparia) [15] = test: Test C postemergence, kochia; conditions: visual injury, 0 to 100 scale (0 no effect, 100 complete control)
Text: as §1, §2

[16] = system: oat, wild (wild oat, Avena fatua); test: Test C postemergence, wild oat; conditions: visual injury, 0 to 100 scale (0 no effect, 100 complete control)
Text: as §1, §2

[17] = system: pigweed, palmer (palmer amaranth, Amaranthus palmeri); test: Test C postemergence, palmer amaranth; conditions: visual injury, 0 to 100 scale (0 no effect, 100 complete control)
Text: as §1, §2

[18] = system: ragweed (common ragweed, Ambrosia artemisiifolia); test: Test C postemergence, ragweed; conditions: visual injury, 0 to 100 scale (0 no effect, 100 complete control)
Text: as §1, §2

[19] = system: ryegrass, Italian (Italian ryegrass, Lolium multiflorum); test: Test C postemergence, Italian ryegrass; conditions: visual injury, 0 to 100 scale (0 no effect, 100 complete control)
Text: as §1, §2

soybean (Glycine max) [20] = test: Test C postemergence, soybean; conditions: visual injury, 0 to 100 scale (0 no effect, 100 complete control)
Text: as §1, §2

[21] = system: wheat (Triticum aestivum); test: Test C postemergence, wheat; conditions: visual injury, 0 to 100 scale (0 no effect, 100 complete control)
Text: as §1, §2

[22] = system: galium (catchweed bedstraw, Galium aparine); test: Test C postemergence, galium; conditions: visual injury, 0 to 100 scale (0 no effect, 100 complete control)
Text: as §1, §2

[23] = system: horseweed (Erigeron canadensis); test: Test C postemergence, horseweed; conditions: 125 g ai/ha Postemergence; visual injury, 0 to 100 scale (0 no effect, 100 complete control)
Text: as §1, §2

[24] = system: barnyardgrass (Echinochloa crusgalli); test: Test D flooded paddy test, barnyardgrass; design: key: 0 = no effect, 100 = complete control; conditions: 250 g ai/ha, Flood; applied to paddy water at 2-leaf stage; visual rating after 13 days; scale 0 (no effect) to 100 (complete control)
Experimental: (§3) Plant species in the flooded paddy test selected from barnyardgrass (Echinochloa crusgalli), ducksalad (Heteranthera limosa), rice (Oryza sativa), and sedge, umbrella (small-flower umbrella sedge, Cyperus difformis) were grown to the 2-leaf stage for testing. At time of treatment, test pots were flooded to 3 cm above the soil surface, treated by application of test compounds directly to the paddy water, and then maintained at that water depth for the duration of the test. Treated plants and controls were maintained in a greenhouse for 13 days, after which time all species were compared to controls and visually evaluated. Plant response ratings, summarized in Table B, are based on a scale of 0 to 100 where 0 is no effect and 100 is complete control. A dash (-) response means no test result.

[25] = system: ducksalad (Heteranthera limosa); test: Test D flooded paddy test, ducksalad; design: key: 0 = no effect, 100 = complete control; conditions: 250 g ai/ha, Flood; applied to paddy water at 2-leaf stage; visual rating after 13 days; scale 0 (no effect) to 100 (complete control)
Experimental: as §3

rice (Oryza sativa) = test: Test D flooded paddy test, rice; design: key: 0 = no effect, 100 = complete control; conditions: 250 g ai/ha, Flood; applied to paddy water at 2-leaf stage; visual rating after 13 days; scale 0 (no effect) to 100 (complete control)
Experimental: as §3

[26] = system: sedge, umbrella (small-flower umbrella sedge, Cyperus difformis); test: Test D flooded paddy test, umbrella sedge; design: key: 0 = no effect, 100 = complete control; conditions: 250 g ai/ha, Flood; applied to paddy water at 2-leaf stage; visual rating after 13 days; scale 0 (no effect) to 100 (complete control)
Experimental: as §3

Cc1c(NS(=O)(=O)C(F)(F)F)cc(N2CCC(OC3CC3)C2=O)c(C)c1C (stereo not shown) [Compound 47]
Plant response rating (0 to 100 scale), Corn (corn (Zea mays) [1]; 31 g ai/ha Preemergence): 30
Plant response rating (0 to 100 scale), Corn (corn (Zea mays) [1]; 125 g ai/ha Preemergence): 90
Plant response rating (0 to 100 scale), Foxtail, Giant ([2]; 31 g ai/ha Preemergence): 100
Plant response rating (0 to 100 scale), Foxtail, Giant ([2]; 125 g ai/ha Preemergence): 100
Plant response rating (0 to 100 scale), Goosegrass ([3]; 31 g ai/ha Preemergence): 100
Plant response rating (0 to 100 scale), Goosegrass ([3]; 125 g ai/ha Preemergence): 100
Plant response rating (0 to 100 scale), Kochia (kochia (Bassia scoparia) [4]; 31 g ai/ha Preemergence): 70
Plant response rating (0 to 100 scale), Kochia (kochia (Bassia scoparia) [4]; 125 g ai/ha Preemergence): 100
Plant response rating (0 to 100 scale), Oat, Wild ([5]; 31 g ai/ha Preemergence): 80
Plant response rating (0 to 100 scale), Oat, Wild ([5]; 125 g ai/ha Preemergence): 100
Plant response rating (0 to 100 scale), Pigweed, Palmer ([6]; 31 g ai/ha Preemergence): 100
Plant response rating (0 to 100 scale), Pigweed, Palmer ([6]; 125 g ai/ha Preemergence): 100
Plant response rating (0 to 100 scale), Ragweed ([7]; 31 g ai/ha Preemergence): 70
Plant response rating (0 to 100 scale), Ragweed ([7]; 125 g ai/ha Preemergence): 100
Plant response rating (0 to 100 scale), Ryegrass, Italian ([8]; 31 g ai/ha Preemergence): 50
Plant response rating (0 to 100 scale), Ryegrass, Italian ([8]; 125 g ai/ha Preemergence): 90
Plant response rating (0 to 100 scale), Soybean (soybean (Glycine max) [9]; 31 g ai/ha Preemergence): 50
Plant response rating (0 to 100 scale), Soybean (soybean (Glycine max) [9]; 125 g ai/ha Preemergence): 90
Plant response rating (0 to 100 scale), Wheat ([10]; 31 g ai/ha Preemergence): 90
Plant response rating (0 to 100 scale), Wheat ([10]; 125 g ai/ha Preemergence): 100
Blackgrass plant response rating ([11]; 31 g ai/ha Postemergence): 40
Blackgrass plant response rating ([11]; 125 g ai/ha Postemergence): 70
Corn plant response rating (corn (Zea mays) [12]; 31 g ai/ha Postemergence): 70
Corn plant response rating (corn (Zea mays) [12]; 125 g ai/ha Postemergence): 90
Foxtail, Giant plant response rating ([13]; 31 g ai/ha Postemergence): 70
Foxtail, Giant plant response rating ([13]; 125 g ai/ha Postemergence): 90
Goosegrass plant response rating ([14]; 31 g ai/ha Postemergence): 50
Goosegrass plant response rating ([14]; 125 g ai/ha Postemergence): 90
Kochia plant response rating (kochia (Bassia scoparia) [15]; 31 g ai/ha Postemergence): 40
Kochia plant response rating (kochia (Bassia scoparia) [15]; 125 g ai/ha Postemergence): 80
Oat, Wild plant response rating ([16]; 31 g ai/ha Postemergence): 10
Oat, Wild plant response rating ([16]; 125 g ai/ha Postemergence): 60
Pigweed, Palmer plant response rating ([17]; 31 g ai/ha Postemergence): 30
Pigweed, Palmer plant response rating ([17]; 125 g ai/ha Postemergence): 70
Ragweed plant response rating ([18]; 31 g ai/ha Postemergence): 60
Ragweed plant response rating ([18]; 125 g ai/ha Postemergence): 80
Ryegrass, Italian plant response rating ([19]; 31 g ai/ha Postemergence): 50
Ryegrass, Italian plant response rating ([19]; 125 g ai/ha Postemergence): 90
Soybean plant response rating (soybean (Glycine max) [20]; 31 g ai/ha Postemergence): 70
Soybean plant response rating (soybean (Glycine max) [20]; 125 g ai/ha Postemergence): 90
Wheat plant response rating ([21]; 31 g ai/ha Postemergence): 80
Wheat plant response rating ([21]; 125 g ai/ha Postemergence): 80
Galium plant response rating ([22]; 31 g ai/ha Postemergence): 80
Galium plant response rating ([22]; 125 g ai/ha Postemergence): 90
Horseweed plant response rating [23]: 100
Plant response rating, Barnyardgrass [24]: 75
Plant response rating, Ducksalad [25]: 95
Plant response rating, Rice (rice (Oryza sativa)): 30
Plant response rating, Sedge, Umbrella [26]: 95
